Source: PubChem BioAssay (NCI)
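Method: 48-hour compound exposure of cells in 96-well plates, five concentrations, linear interpolation of endpoints. Abbreviation: GI50, concentration required for 50% inhibition of growth. The concentration for full growth arrest is given as TGI.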

Key:
Experiment in all cases: NCI tumour cell line growth inhibition, 48 h
786-0 renal = tested on: 786-0 renal
A498 renal = tested on: A498 renal
A549 NSCLC = tested on: A549 NSCLC
ACHN renal = tested on: ACHN renal
BT-549 breast = tested on: BT-549 breast
CAKI-1 renal = tested on: CAKI-1 renal
CCRF-CEM leukemia = tested on: CCRF-CEM leukemia
COLO 205 colon = tested on: COLO 205 colon
DU-145 prostate = tested on: DU-145 prostate
HCC-2998 colon = tested on: HCC-2998 colon
HCT-116 colon = tested on: HCT-116 colon
HCT-15 colon = tested on: HCT-15 colon
HL-60(TB) leukemia = tested on: HL-60(TB) leukemia
HOP-62 NSCLC = tested on: HOP-62 NSCLC
HOP-92 NSCLC = tested on: HOP-92 NSCLC
HS 578T breast = tested on: HS 578T breast
HT29 colon = tested on: HT29 colon
IGROV1 ovarian = tested on: IGROV1 ovarian
K-562 leukemia = tested on: K-562 leukemia
KM12 colon = tested on: KM12 colon
LOX IMVI melanoma = tested on: LOX IMVI melanoma
M14 melanoma = tested on: M14 melanoma
MALME-3M melanoma = tested on: MALME-3M melanoma
MCF7 breast = tested on: MCF7 breast
MDA-MB-231 breast = tested on: MDA-MB-231 breast
MDA-MB-435 = tested on: MDA-MB-435
MOLT-4 leukemia = tested on: MOLT-4 leukemia
NCI-H226 lung = tested on: NCI-H226 lung
NCI-H23 lung = tested on: NCI-H23 lung
NCI-H460 lung = tested on: NCI-H460 lung
NCI-H522 lung = tested on: NCI-H522 lung
NCI/ADR-RES ovarian = tested on: NCI/ADR-RES ovarian
OVCAR-3 ovarian = tested on: OVCAR-3 ovarian
OVCAR-4 ovarian = tested on: OVCAR-4 ovarian
OVCAR-5 ovarian = tested on: OVCAR-5 ovarian
OVCAR-8 ovarian = tested on: OVCAR-8 ovarian
PC-3 prostate = tested on: PC-3 prostate
RPMI-8226 leukemia = tested on: RPMI-8226 leukemia
RXF 393 renal = tested on: RXF 393 renal
SF-268 CNS = tested on: SF-268 CNS
SF-295 CNS = tested on: SF-295 CNS
SF-539 CNS = tested on: SF-539 CNS
SK-MEL-2 melanoma = tested on: SK-MEL-2 melanoma
SK-MEL-28 melanoma = tested on: SK-MEL-28 melanoma
SK-MEL-5 melanoma = tested on: SK-MEL-5 melanoma
SK-OV-3 ovarian = tested on: SK-OV-3 ovarian
SN12C renal = tested on: SN12C renal
SNB-19 CNS = tested on: SNB-19 CNS
SNB-75 CNS = tested on: SNB-75 CNS
SR leukemia = tested on: SR leukemia
SW-620 colon = tested on: SW-620 colon
T-47D breast = tested on: T-47D breast
TK-10 renal = tested on: TK-10 renal
U251 CNS = tested on: U251 CNS
UACC-257 melanoma = tested on: UACC-257 melanoma
UACC-62 melanoma = tested on: UACC-62 melanoma
UO-31 renal = tested on: UO-31 renal

In the case of `CCCCCCCCCCCCCCCCOC(=O)c1c(C)[nH]c(/C=C2\N=C(c3ccc[nH]3)C=C2OC)c1C`, the GI50 (786-0 renal) is reported as 1070 nM, the TGI (786-0 renal) is reported as 14400 nM and the GI50 (A498 renal) is reported as 1510 nM. The TGI (A498 renal) was 5470 nM, the GI50 (A549 NSCLC) was 239 nM and the TGI (A549 NSCLC) was 12800 nM. For the same compound, the GI50 (ACHN renal) was 1650 nM, the TGI (ACHN renal) was 14900 nM and the GI50 (BT-549 breast) was 2230 nM. It also gave a TGI (BT-549 breast) of 20400 nM, a GI50 (CAKI-1 renal) of 212 nM and a TGI (CAKI-1 renal) of 30500 nM. It also gave a GI50 (CCRF-CEM leukemia) of 32900 nM, a TGI (CCRF-CEM leukemia) of over 100000 nM and a GI50 (COLO 205 colon) of 3810 nM. It also gave a TGI (COLO 205 colon) of over 100000 nM, a GI50 (DU-145 prostate) of 406 nM and a TGI (DU-145 prostate) of over 56500 nM. For the same compound, the GI50 (HCC-2998 colon) was 244 nM, the TGI (HCC-2998 colon) was 14900 nM and the GI50 (HCT-116 colon) was 43 nM. The TGI (HCT-116 colon) was 7330 nM, the GI50 (HCT-15 colon) was 2210 nM and the TGI (HCT-15 colon) was over 100000 nM. The GI50 (HL-60(TB) leukemia) was 151 nM, the TGI (HL-60(TB) leukemia) was over 100000 nM and the GI50 (HOP-62 NSCLC) was 2890 nM. It also gave a TGI (HOP-62 NSCLC) of 12800 nM, a GI50 (HOP-92 NSCLC) of 200 nM and a TGI (HOP-92 NSCLC) of 830 nM. For the same compound, the GI50 (HS 578T breast) was 1410 nM, the TGI (HS 578T breast) was 9380 nM and the GI50 (HT29 colon) was 83 nM. The TGI (HT29 colon) was over 100000 nM, the GI50 (IGROV1 ovarian) was 1060 nM and the TGI (IGROV1 ovarian) was 9400 nM. The GI50 (K-562 leukemia) was 413 nM, the TGI (K-562 leukemia) was over 100000 nM and the GI50 (KM12 colon) was 102 nM. For the same compound, the TGI (KM12 colon) was over 100000 nM, the GI50 (LOX IMVI melanoma) was 34.6 nM and the TGI (LOX IMVI melanoma) was 144 nM. For the same compound, the GI50 (M14 melanoma) was 152 nM, the TGI (M14 melanoma) was 452 nM and the GI50 (MALME-3M melanoma) was 3670 nM. For the same compound, the TGI (MALME-3M melanoma) was 29800 nM, the GI50 (MCF7 breast) was 68.6 nM and the TGI (MCF7 breast) was over 100000 nM. It also gave a GI50 (MDA-MB-231 breast) of 789 nM, a TGI (MDA-MB-231 breast) of 10100 nM and a GI50 (MDA-MB-435) of 307 nM. The TGI (MDA-MB-435) was over 100000 nM, the GI50 (MOLT-4 leukemia) was over 100000 nM and the TGI (MOLT-4 leukemia) was over 100000 nM. For the same compound, the GI50 (NCI-H226 lung) was 4540 nM, the TGI (NCI-H226 lung) was 15200 nM and the GI50 (NCI-H23 lung) was 1150 nM. It also gave a TGI (NCI-H23 lung) of 12700 nM, a GI50 (NCI-H460 lung) of 42.9 nM and a TGI (NCI-H460 lung) of over 100000 nM. It also gave a GI50 (NCI-H522 lung) of 5690 nM, a TGI (NCI-H522 lung) of over 70100 nM and a GI50 (NCI/ADR-RES ovarian) of 735 nM. The TGI (NCI/ADR-RES ovarian) was 19900 nM, the GI50 (OVCAR-3 ovarian) was 1670 nM and the TGI (OVCAR-3 ovarian) was 6910 nM. It also gave a GI50 (OVCAR-4 ovarian) of 2710 nM, a TGI (OVCAR-4 ovarian) of 53600 nM and a GI50 (OVCAR-5 ovarian) of 718 nM. The GI50 (OVCAR-8 ovarian) was 384 nM, the TGI (OVCAR-8 ovarian) was 15000 nM and the GI50 (PC-3 prostate) was 162 nM. It also gave a TGI (PC-3 prostate) of over 100000 nM, a GI50 (RPMI-8226 leukemia) of 95.8 nM and a TGI (RPMI-8226 leukemia) of over 100000 nM. For the same compound, the GI50 (RXF 393 renal) was 1410 nM, the TGI (RXF 393 renal) was 6460 nM and the GI50 (SF-268 CNS) was 1990 nM. It also gave a TGI (SF-268 CNS) of 19600 nM, a GI50 (SF-295 CNS) of 2700 nM and a TGI (SF-295 CNS) of 11000 nM. For the same compound, the GI50 (SF-539 CNS) was 2300 nM, the TGI (SF-539 CNS) was 13600 nM and the GI50 (SK-MEL-2 melanoma) was 249 nM. The TGI (SK-MEL-2 melanoma) was 1340 nM, the GI50 (SK-MEL-28 melanoma) was 3940 nM and the TGI (SK-MEL-28 melanoma) was over 48700 nM. It also gave a GI50 (SK-MEL-5 melanoma) of 119 nM, a TGI (SK-MEL-5 melanoma) of 703 nM and a GI50 (SK-OV-3 ovarian) of 2350 nM. It also gave a TGI (SK-OV-3 ovarian) of 5900 nM, a GI50 (SN12C renal) of 1640 nM and a TGI (SN12C renal) of 23700 nM. It also gave a GI50 (SNB-19 CNS) of 11800 nM, a TGI (SNB-19 CNS) of 80300 nM and a GI50 (SNB-75 CNS) of 2470 nM. It also gave a TGI (SNB-75 CNS) of 7170 nM, a GI50 (SR leukemia) of 1540 nM and a TGI (SR leukemia) of over 100000 nM. It also gave a GI50 (SW-620 colon) of 182 nM, a TGI (SW-620 colon) of over 100000 nM and a GI50 (T-47D breast) of 433 nM. The TGI (T-47D breast) was 12800 nM, the GI50 (TK-10 renal) was 759 nM and the TGI (TK-10 renal) was 3360 nM. For the same compound, the GI50 (U251 CNS) was 638 nM, the TGI (U251 CNS) was 7040 nM and the GI50 (UACC-257 melanoma) was 9690 nM. The TGI (UACC-257 melanoma) was over 100000 nM, the GI50 (UACC-62 melanoma) was 235 nM and the TGI (UACC-62 melanoma) was 620 nM. The GI50 (UO-31 renal) was 1210 nM and the TGI (UO-31 renal) was 17100 nM.
